Test results published in ChEMBL document CHEMBL3091453, “Bioactive compounds from Stuhlmannia moavi from the Madagascar dry forest” (Bioorg Med Chem, 2013).
The source made the active and inactive calls. The calls are words filed in the database; no cut-off is given here.

Key:
A2780 = test: Antiproliferative activity against human A2780 cells after 2 days by Alamar Blue assay; assay type: functional, cell-based; settings: for IC50: A2780, 48 h
Plasmodium falciparum = test: Antimalarial activity against chloroquine/mefloquine-resistant Plasmodium falciparum Dd2 after 72 hrs by SYBR Green I assay; assay type: functional; settings: Dd2, 72 h

Row | SMILES | IC50 (A2780) [µM] | IC50 (Plasmodium falciparum) [µM] | Activity (A2780)
1 | COc1cc(O)cc(/C=C/c2ccc(O)c(O)c2)c1 | 54 | 27 | 
2 | COC1=CC(=O)c2c(O)c(C(C)=O)c(C)c(O)c2C1=O | 8.1 | 24 | 
3 | CC(=O)O[C@H]1C(=O)[C@@]2(C)[C@H]([C@H](OC(=O)c3ccccc3)[C@]3(O)C[C@H](OC(=O)[C@H](O)[C@@H](NC(=O)c4ccccc4)c4ccccc4)C(C)=C1C3(C)C)[C@]1(OC(C)=O)CO[C@@H]1C[C@@H]2O [PACLITAXEL] | 0.024 |  | 
4 | Oc1ccc(/C=C/c2cc(O)cc(O)c2)cc1 [RESVERATROL] | 74 |  | 
5 | Oc1cc(O)cc(/C=C/c2ccc(O)c(O)c2)c1 [PICEATANNOL] | 41 |  | 
6 | COc1cc(/C=C/c2cc(O)cc(O)c2)ccc1O |  |  | Active
7 | COc1ccc(/C=C2\COc3cc(O)ccc3C2=O)cc1 [BONDUCELLIN] | 10.6 | 26 | 
8 | C[C@@H]1CC[C@H]2[C@@H](C)C(=O)O[C@@H]3O[C@@]4(C)CC[C@@H]1[C@]32OO4 [ARTEMISININ] |  | 0.007 | 
